{"source": "patent US12240838B2", "about": "“Inhibiting agents for Bruton's tyrosine kinase” (BIOGEN MA INC., priority 2019, dated 2025)", "key": {"[1]": {"molecular_target": "T1, BTK (Homo sapiens (Human), UniProt Q06187)", "T1 sequence (Q06187 whole entry)": "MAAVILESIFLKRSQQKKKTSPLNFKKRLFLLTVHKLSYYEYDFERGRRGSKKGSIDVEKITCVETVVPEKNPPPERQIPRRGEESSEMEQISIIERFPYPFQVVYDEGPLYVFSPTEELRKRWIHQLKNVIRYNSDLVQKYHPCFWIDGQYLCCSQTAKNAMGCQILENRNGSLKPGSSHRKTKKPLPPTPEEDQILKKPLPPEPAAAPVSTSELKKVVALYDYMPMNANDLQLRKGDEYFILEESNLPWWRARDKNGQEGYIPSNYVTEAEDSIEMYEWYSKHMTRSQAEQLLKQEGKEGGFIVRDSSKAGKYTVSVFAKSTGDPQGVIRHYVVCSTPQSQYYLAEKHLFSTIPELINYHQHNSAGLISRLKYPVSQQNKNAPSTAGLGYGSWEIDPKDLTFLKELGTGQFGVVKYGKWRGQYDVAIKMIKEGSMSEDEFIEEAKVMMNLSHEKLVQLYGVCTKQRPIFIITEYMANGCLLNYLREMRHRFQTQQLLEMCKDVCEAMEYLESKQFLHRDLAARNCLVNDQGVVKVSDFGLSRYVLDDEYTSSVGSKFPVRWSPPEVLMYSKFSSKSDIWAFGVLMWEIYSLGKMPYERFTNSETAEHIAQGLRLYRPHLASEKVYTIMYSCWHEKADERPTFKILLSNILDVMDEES", "assay": "In Vitro PD Assay in Human Whole Blood (pBTK assay)", "assay_type": "cell-based", "conditions": "37° C. for 30 min, 50% inhibition of ECL signal", "protocol": "Human heparinized venous blood was purchased from Bioreclamation, Inc. or SeraCare Life Sciences and shipped overnight. Whole blood was aliquoted into 96-well plate and “spiked” with serial dilutions of test compound in DMSO or with DMSO without drug. The final concentration of DMSO in all wells was 0.1%. The plate was incubated at 37° C. for 30 min. Lysis buffer containing protease and phosphatase inhibitors was added to the drug-containing samples and one of the DMSO-only samples (+PPi, high control), while lysis buffer containing protease inhibitors was added to the other DMSO-only samples (−PPi, low control). All of the lysed whole blood samples were subjected to the total BTK capture and phosphotyrosine detection method described in US20160311802, incorporated herein by reference."}, "[2]": {"molecular_target": "T1, BTK", "assay": "In Vitro BTK Kinase Assay: BTK-POLYGAT-LS ASSAY", "assay_type": "biochemical", "conditions": "ATP 10 μM, polyGAT 100 nM, BTK 0.25 nM, 30 minutes", "protocol": "The purpose of the BTK in vitro assay is to determine compound potency against BTK through the measurement of IC50. […] The BTK kinase reaction was done in a black 96 well plate (costar 3694). For a typical assay, a 24 μL aliquot of a ATP/peptide master mix (final concentration; ATP 10 μM, polyGAT 100 nM) in kinase buffer (10 mM Tris-HCl pH 7.5, 10 mM MgCl2, 200 μM […], 5 mM DTT, 0.01% Triton X-100, and 0.2 mg/ml casein) is added to each well. Next, […] of a 4-fold, 40× compound titration in 100% DMSO solvent is added, followed by adding 15 μL of BTK enzyme mix in 1× kinase buffer (with a final concentration of 0.25 nM). The assay is incubated for 30 minutes before being stopped with […] of a 50 mM EDTA solution. Aliquots (5 μL) of the kinase reaction are transferred to a low volume white 384 well plate (Coming 3674), and […] of a 2× detection buffer (Invitrogen PV3574, with 4 nM Tb-PY20 antibody, Invitrogen PV3552) is added. The plate is covered and incubated for 45 minutes at room temperature. Time resolved fluorescence (TRF) on Molecular Devices M5 (332 nm excitation; 488 nm emission; 518 nm fluorescein emission) is measured."}}, "data": [{"smiles": "Cc1cc(-c2ccnc(NC(=O)[C@@H]3C[C@@H]3F)c2)ccc1CNC(=O)c1noc(C(C)(C)C)n1", "note": "(single isomer, unassigned) [Compound 3]", "values": [{"measurement": "IC50", "setting": "[1]", "value": "≤ 100", "unit": "nM"}, {"measurement": "IC50", "setting": "[2]", "value": "≤ 1", "unit": "nM"}]}, {"smiles": "Cc1cc(-c2ccnc(NC(=O)[C@H]3C[C@H]3F)c2)ccc1CNC(=O)c1noc(C(C)(C)C)n1", "note": "(single isomer, unassigned) [Compound 4]", "values": [{"measurement": "IC50", "setting": "[2]", "value": "≤ 1", "unit": "nM"}]}, {"smiles": "Cc1cc(-c2ccnc(NC(=O)[C@H]3C[C@@H]3C)c2)ccc1CNC(=O)c1noc(C(C)(C)C)n1", "note": "[Compound 5, 5-(tert-butyl)-N-(2-methyl-4-(2-((1S,2S)-2-methylcyclopropane-1-carboxamido)pyridin-4-yl)benzyl)-1,2,4-oxadiazole-3-carboxamide]", "values": [{"measurement": "IC50", "setting": "[1]", "value": "≤ 100", "unit": "nM"}, {"measurement": "IC50", "setting": "[2]", "value": "≤ 1", "unit": "nM"}]}, {"smiles": "Cc1cc(-c2ccnc(NC(=O)[C@@H]3C[C@H]3C)c2)ccc1CNC(=O)c1noc(C(C)(C)C)n1", "note": "[Compound 6, 5-(tert-butyl)-N-(2-methyl-4-(2-((1R,2R)-2-methylcyclopropane-1-carboxamido)pyridin-4-yl)benzyl)-1,2,4-oxadiazole-3-carboxamide]", "values": [{"measurement": "IC50", "setting": "[1]", "value": "≤ 100", "unit": "nM"}, {"measurement": "IC50", "setting": "[2]", "value": "≤ 1", "unit": "nM"}]}, {"smiles": "Cc1cc(-c2cc(NC(=O)C3CC3)ncc2Cl)ccc1CNC(=O)c1noc(C(C)(C)C)n1", "note": "[Compound 7, 5-(tert-butyl)-N-(4-(5-chloro-2-(cyclopropanecarboxamido)pyridin-4-yl)-2-methylbenzyl)-1,2,4-oxadiazole-3-carboxamide]", "values": [{"measurement": "IC50", "setting": "[1]", "value": "100 to 500", "unit": "nM"}, {"measurement": "IC50", "setting": "[2]", "value": "≤ 1", "unit": "nM"}]}, {"smiles": "CC(C)(C)c1nc(C(=O)N[C@@H]2CCN(CC(F)(F)F)Cc3cc(-c4ccnc(NC(=O)C5CC5)c4)ccc32)no1", "note": "[Compound 10, (R)-5-(tert-butyl)-N-(8-(2-(cyclopropanecarboxamido)pyridin-4-yl)-2-(2,2,2-trifluoroethyl)-2,3,4,5-tetrahydro-1H-benzo[c]azepin-5-yl)-1,2,4-oxadiazole-3-carboxamide]", "values": [{"measurement": "IC50", "setting": "[1]", "value": "≤ 100", "unit": "nM"}, {"measurement": "IC50", "setting": "[2]", "value": "≤ 1", "unit": "nM"}]}, {"smiles": "Cc1cc(-c2ccnc(NC(=O)C3C4COCC43)c2)ccc1CNC(=O)c1noc(C(C)(C)C)n1", "note": "(stereo not drawn) [Compound 23]", "values": [{"measurement": "IC50", "setting": "[2]", "value": "1 to 10", "unit": "nM"}]}, {"smiles": "CC(C)(C)c1nc(C(=O)N[C@@H]2CCCCc3cc(-c4ccnc(NC(=O)C5CC5)c4)c(F)cc32)no1", "note": "[Compound 24, (R)-5-(tert-butyl)-N-(2-(2-(cyclopropanecarboxamido)pyridin-4-yl)-3-fluoro-6,7,8,9-tetrahydro-5H-benzo[7]annulen-5-yl)-1,2,4-oxadiazole-3-carboxamide]", "values": [{"measurement": "IC50", "setting": "[2]", "value": "≤ 1", "unit": "nM"}]}, {"smiles": "Cc1cc(-c2ccnc(NC(=O)C3CC3C(F)(F)F)c2)ccc1CNC(=O)c1noc(C(C)(C)C)n1", "note": "(stereo not drawn) [Compound 25, 5-(tert-butyl)-N-(2-methyl-4-(2-(2-(trifluoromethyl)cyclopropane-1-carboxamido)pyridin-4-yl)benzyl)-1,2,4-oxadiazole-3-carboxamide]", "values": [{"measurement": "IC50", "setting": "[2]", "value": "1 to 10", "unit": "nM"}]}, {"smiles": "CC(C)(C)c1noc(C(=O)NCc2ccc(-c3ccnc(NC(=O)C4CC4)c3)c(F)c2C(F)F)n1", "note": "[Compound 27, 3-(tert-butyl)-N-(4-(2-(cyclopropanecarboxamido)pyridin-4-yl)-2-(difluoromethyl)-3-fluorobenzyl)-1,2,4-oxadiazole-5-carboxamide]", "values": [{"measurement": "IC50", "setting": "[2]", "value": "≤ 1", "unit": "nM"}]}, {"smiles": "Cc1cc(-c2ccnc(NC(=O)C3CC3)c2)ccc1CNC(=O)c1nn(C(C)(C)C)cc1F", "note": "[Compound 28, 1-(tert-butyl)-N-(4-(2-(cyclopropanecarboxamido)pyridin-4-yl)-2-methylbenzyl)-4-fluoro-1H-pyrazole-3-carboxamide]", "values": [{"measurement": "IC50", "setting": "[2]", "value": "≤ 1", "unit": "nM"}]}, {"smiles": "CC(C)(C)c1nc(C(=O)N[C@@H]2CCCCc3c2ccc(-c2ccnc(NC(=O)C4CC4)c2)c3F)no1", "note": "[Compound 40, (R)-5-(tert-butyl)-N-(2-(2-(cyclopropanecarboxamido)pyridin-4-yl)-1-fluoro-6,7,8,9-tetrahydro-5H-benzo[7]annulen-5-yl)-1,2,4-oxadiazole-3-carboxamide]", "values": [{"measurement": "IC50", "setting": "[2]", "value": "≤ 1", "unit": "nM"}]}, {"smiles": "CC(C)(C)c1noc(C(=O)N[C@@H]2CCCCc3cc(-c4ccnc(NC(=O)[C@@H]5C[C@@H]5C#N)c4)ccc32)n1", "note": "[Compound 50, 3-(tert-butyl)-N-((R)-2-(2-((1R,2S)-2-cyanocyclopropane-1-carboxamido)pyridin-4-yl)-6,7,8,9-tetrahydro-5H-benzo[7]annulen-5-yl)-1,2,4-oxadiazole-5-carboxamide]", "values": [{"measurement": "IC50", "setting": "[2]", "value": "≤ 1", "unit": "nM"}]}, {"smiles": "CC(C)(C)c1nc(C(=O)NCc2cc(F)c(-c3ccnc(NC(=O)C4CC4)c3)cc2C(F)(F)F)no1", "note": "[Compound 62, 5-(tert-butyl)-N-(4-(2-(cyclopropanecarboxamido)pyridin-4-yl)-5-fluoro-2-(trifluoromethyl)benzyl)-1,2,4-oxadiazole-3-carboxamide]", "values": [{"measurement": "IC50", "setting": "[1]", "value": "500 to 10000", "unit": "nM"}]}, {"smiles": "Cc1c([C@@H](C)NC(=O)c2nc(C(C)(C)C)no2)ccc(-c2ccnc(NC(=O)C3CC3)c2)c1F", "note": "[Compound 66, (R)-3-(tert-butyl)-N-(1-(4-(2-(cyclopropanecarboxamido)pyridin-4-yl)-3-fluoro-2-methylphenyl)ethyl)-1,2,4-oxadiazole-5-carboxamide]", "values": [{"measurement": "IC50", "setting": "[2]", "value": "≤ 1", "unit": "nM"}]}, {"smiles": "C[C@@H](NC(=O)c1noc(C(C)(C)C)n1)c1ccc(-c2ccnc(NC(=O)C3CC3)c2)c(F)c1Cl", "note": "[Compound 74, (R)-5-(tert-butyl)-N-(1-(2-chloro-4-(2-(cyclopropanecarboxamido)pyridin-4-yl)-3-fluorophenyl)ethyl)-1,2,4-oxadiazole-3-carboxamide]", "values": [{"measurement": "IC50", "setting": "[2]", "value": "≤ 1", "unit": "nM"}]}, {"smiles": "C[C@@H](NC(=O)c1nc(C(C)(C)C)no1)c1ccc(-c2ccnc(NC(=O)C3CC3)c2)c(F)c1Cl", "note": "[Compound 75, (R)-3-(tert-butyl)-N-(1-(2-chloro-4-(2-(cyclopropanecarboxamido)pyridin-4-yl)-3-fluorophenyl)ethyl)-1,2,4-oxadiazole-5-carboxamide]", "values": [{"measurement": "IC50", "setting": "[2]", "value": "≤ 1", "unit": "nM"}]}, {"smiles": "Cc1cc(-c2ccnc(NC(=O)C3CC3)c2)c(F)cc1[C@@H](C)NC(=O)c1noc(C(C)(C)C)n1", "note": "[Compound 85, (R)-5-(tert-butyl)-N-(1-(4-(2-(cyclopropanecarboxamido)pyridin-4-yl)-5-fluoro-2-methylphenyl)ethyl)-1,2,4-oxadiazole-3-carboxamide]", "values": [{"measurement": "IC50", "setting": "[2]", "value": "≤ 1", "unit": "nM"}]}, {"smiles": "CC(C)(C)c1nc(C(=O)NCc2ccc(-c3ccnc(NC(=O)C4CC4)c3)c(F)c2C(F)(F)F)no1", "note": "[Compound 86, 5-(tert-butyl)-N-(4-(2-(cyclopropanecarboxamido)pyridin-4-yl)-3-fluoro-2-(trifluoromethyl)benzyl)-1,2,4-oxadiazole-3-carboxamide]", "values": [{"measurement": "IC50", "setting": "[2]", "value": "≤ 1", "unit": "nM"}]}, {"smiles": "COc1cc(-c2ccnc(NC(=O)C3CC3)c2)ccc1CNC(=O)c1noc(C(C)(C)C)n1", "note": "[Compound 87, 5-(tert-butyl)-N-(4-(2-(cyclopropanecarboxamido)pyridin-4-yl)-2-methoxybenzyl)-1,2,4-oxadiazole-3-carboxamide]", "values": [{"measurement": "IC50", "setting": "[2]", "value": "≤ 1", "unit": "nM"}]}, {"smiles": "CC(C)(C)c1nc(C(=O)NCc2ccc(-c3ccnc(NC(=O)C4CC4)c3)cc2C2CCC2)no1", "note": "[Compound 88, 5-(tert-butyl)-N-(2-cyclobutyl-4-(2-(cyclopropanecarboxamido)pyridin-4-yl)benzyl)-1,2,4-oxadiazole-3-carboxamide]", "values": [{"measurement": "IC50", "setting": "[2]", "value": "≤ 1", "unit": "nM"}]}, {"smiles": "Cc1cc(-c2ccnc(NC(=O)C3CC3)c2)ccc1CNC(=O)c1cn(C(C)(C)C)cn1", "note": "[Compound 95, 1-(tert-butyl)-N-(4-(2-(cyclopropanecarboxamido)pyridin-4-yl)-2-methylbenzyl)-1H-imidazole-4-carboxamide]", "values": [{"measurement": "IC50", "setting": "[2]", "value": "10 to 1000", "unit": "nM"}]}]}
